Assay [1] in a line: Inhibition of KHS1 Lys2 labeling site harbouring DIKGANILLTDHGDVKLADFGVAAK in human Huh-7 cells at 1 uM by KiNativ Profiling analysis relative to control. As to conditions: condition cancer.
Assay [2] deals with Serine/threonine-protein kinase MARK1 (Homo sapiens) (UniProt Q9P0L2). Put plainly: Inhibition of MARK1 Lys2 labeling site in human A-375 cells at 0.05 uM by KiNativ Profiling analysis relative to control. It is filed as cell-based.
The target in assay [3] is Death-associated protein kinase 1 (Homo sapiens) (UniProt P53355). Put plainly: Inhibition of DAPK1 (unknown origin) at 1 uM by Ambit Kinomescan binding assay relative to control; values are per cent of control.
The test system of assay [4] is Phosphatidylinositol 4,5-bisphosphate 3-kinase catalytic subunit alpha isoform (Homo sapiens), P42336 [H1047Y]. In words: Inhibition of PIK3CA H1047Y mutant (unknown origin) at 1 uM by Ambit Kinomescan binding assay relative to control.
Sequence of Phosphatidylinositol 4,5-bisphosphate 3-kinase catalytic subunit alpha isoform (Homo sapiens), P42336 [H1047Y] (P42336 whole entry H1047Y, canonical isoform): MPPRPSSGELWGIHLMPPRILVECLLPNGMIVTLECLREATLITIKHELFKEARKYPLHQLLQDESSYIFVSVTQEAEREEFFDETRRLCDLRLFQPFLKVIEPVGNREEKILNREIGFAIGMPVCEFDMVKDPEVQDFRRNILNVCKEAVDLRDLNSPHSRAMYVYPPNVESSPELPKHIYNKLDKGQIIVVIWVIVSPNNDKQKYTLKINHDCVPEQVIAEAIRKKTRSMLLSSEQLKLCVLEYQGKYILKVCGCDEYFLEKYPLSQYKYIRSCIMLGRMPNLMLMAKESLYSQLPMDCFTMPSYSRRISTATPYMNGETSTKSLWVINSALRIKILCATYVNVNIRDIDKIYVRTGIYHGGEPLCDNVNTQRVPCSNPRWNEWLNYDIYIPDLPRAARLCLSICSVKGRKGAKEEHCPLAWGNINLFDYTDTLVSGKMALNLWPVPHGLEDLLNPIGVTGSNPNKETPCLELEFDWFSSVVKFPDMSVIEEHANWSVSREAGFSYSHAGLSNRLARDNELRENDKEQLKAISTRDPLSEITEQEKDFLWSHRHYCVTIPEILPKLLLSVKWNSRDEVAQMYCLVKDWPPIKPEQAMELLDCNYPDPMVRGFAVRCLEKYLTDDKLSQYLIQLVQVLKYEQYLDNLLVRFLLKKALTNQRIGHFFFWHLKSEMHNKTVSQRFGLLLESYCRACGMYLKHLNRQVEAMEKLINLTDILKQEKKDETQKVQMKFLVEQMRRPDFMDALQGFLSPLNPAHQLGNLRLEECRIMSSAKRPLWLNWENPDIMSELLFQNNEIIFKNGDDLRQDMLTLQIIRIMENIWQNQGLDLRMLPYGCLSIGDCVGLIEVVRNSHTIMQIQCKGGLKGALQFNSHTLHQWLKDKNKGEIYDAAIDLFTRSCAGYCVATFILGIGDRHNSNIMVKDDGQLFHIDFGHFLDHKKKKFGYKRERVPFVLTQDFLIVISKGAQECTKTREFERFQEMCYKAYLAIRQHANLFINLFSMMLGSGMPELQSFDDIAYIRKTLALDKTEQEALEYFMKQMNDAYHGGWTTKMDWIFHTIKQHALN
Assay [5] deals with T1, Aurora kinase C (Homo sapiens) (UniProt Q9UQB9).
T1 sequence (whole entry): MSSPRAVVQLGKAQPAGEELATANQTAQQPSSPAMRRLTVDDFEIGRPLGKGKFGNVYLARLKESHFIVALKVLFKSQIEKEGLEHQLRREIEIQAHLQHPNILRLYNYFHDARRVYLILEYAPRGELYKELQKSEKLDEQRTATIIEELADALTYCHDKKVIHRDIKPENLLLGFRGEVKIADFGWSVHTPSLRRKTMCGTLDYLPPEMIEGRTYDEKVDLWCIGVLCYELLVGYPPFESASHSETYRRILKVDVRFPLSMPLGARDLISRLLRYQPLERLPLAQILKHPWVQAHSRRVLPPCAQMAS
Put plainly: Inhibition of AURKC (unknown origin) at 10 uM by Ambit Kinomescan binding assay.

The target in assay [6] is Serine/threonine-protein kinase MRCK beta (Homo sapiens) (UniProt Q9Y5S2). In words: Inhibition of MRCKB (unknown origin) at 10 uM by Ambit Kinomescan binding assay.
Sequence of Serine/threonine-protein kinase MRCK beta (Homo sapiens) (Q9Y5S2 whole entry): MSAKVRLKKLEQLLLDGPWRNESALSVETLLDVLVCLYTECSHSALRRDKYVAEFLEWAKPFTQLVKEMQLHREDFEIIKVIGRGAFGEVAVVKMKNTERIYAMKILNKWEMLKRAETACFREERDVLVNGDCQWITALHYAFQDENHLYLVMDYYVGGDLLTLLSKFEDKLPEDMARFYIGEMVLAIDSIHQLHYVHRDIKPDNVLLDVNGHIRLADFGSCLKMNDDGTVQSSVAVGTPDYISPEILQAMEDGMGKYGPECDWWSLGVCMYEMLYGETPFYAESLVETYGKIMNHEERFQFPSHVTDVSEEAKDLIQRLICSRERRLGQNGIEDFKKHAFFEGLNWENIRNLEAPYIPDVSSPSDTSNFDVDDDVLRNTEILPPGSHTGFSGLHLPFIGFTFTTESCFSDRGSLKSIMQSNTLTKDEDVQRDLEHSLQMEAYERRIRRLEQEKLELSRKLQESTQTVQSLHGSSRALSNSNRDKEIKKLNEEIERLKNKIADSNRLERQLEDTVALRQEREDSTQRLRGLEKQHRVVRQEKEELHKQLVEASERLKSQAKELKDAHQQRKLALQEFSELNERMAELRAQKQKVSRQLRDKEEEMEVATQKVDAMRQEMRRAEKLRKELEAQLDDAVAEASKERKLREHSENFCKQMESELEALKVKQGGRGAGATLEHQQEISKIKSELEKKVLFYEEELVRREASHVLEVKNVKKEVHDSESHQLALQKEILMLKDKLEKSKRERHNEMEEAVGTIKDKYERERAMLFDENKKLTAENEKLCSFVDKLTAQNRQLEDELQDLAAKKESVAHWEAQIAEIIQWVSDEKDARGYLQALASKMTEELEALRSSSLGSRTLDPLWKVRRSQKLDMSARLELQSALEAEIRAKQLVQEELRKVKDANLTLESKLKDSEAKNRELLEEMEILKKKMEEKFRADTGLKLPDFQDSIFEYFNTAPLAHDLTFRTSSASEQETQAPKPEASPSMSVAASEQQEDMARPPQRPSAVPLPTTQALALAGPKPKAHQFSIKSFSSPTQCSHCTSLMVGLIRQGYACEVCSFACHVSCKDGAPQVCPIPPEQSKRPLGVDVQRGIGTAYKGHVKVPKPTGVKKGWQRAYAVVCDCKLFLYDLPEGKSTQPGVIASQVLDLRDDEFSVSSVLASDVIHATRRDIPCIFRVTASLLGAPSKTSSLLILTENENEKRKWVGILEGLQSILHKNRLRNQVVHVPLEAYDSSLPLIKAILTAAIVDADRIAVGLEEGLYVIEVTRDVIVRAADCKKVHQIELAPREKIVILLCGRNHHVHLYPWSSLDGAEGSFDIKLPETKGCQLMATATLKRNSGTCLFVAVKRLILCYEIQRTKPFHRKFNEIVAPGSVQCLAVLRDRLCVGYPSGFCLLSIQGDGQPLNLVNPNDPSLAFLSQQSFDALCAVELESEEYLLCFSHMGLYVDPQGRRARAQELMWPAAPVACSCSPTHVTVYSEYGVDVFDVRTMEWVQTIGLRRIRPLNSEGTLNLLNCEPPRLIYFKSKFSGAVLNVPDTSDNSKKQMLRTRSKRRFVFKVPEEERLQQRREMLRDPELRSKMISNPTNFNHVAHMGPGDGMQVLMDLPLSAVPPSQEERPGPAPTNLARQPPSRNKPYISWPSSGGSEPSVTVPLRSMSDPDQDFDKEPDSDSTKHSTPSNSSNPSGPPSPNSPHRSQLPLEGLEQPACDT
For assay [7], the target named is Casein kinase II subunit alpha' (Homo sapiens) (UniProt P19784). Put plainly: Inhibition of CSNK2A2 (unknown origin) at 10 uM by Ambit Kinomescan binding assay.
Sequence of Casein kinase II subunit alpha' (Homo sapiens) (P19784 whole entry, looked up): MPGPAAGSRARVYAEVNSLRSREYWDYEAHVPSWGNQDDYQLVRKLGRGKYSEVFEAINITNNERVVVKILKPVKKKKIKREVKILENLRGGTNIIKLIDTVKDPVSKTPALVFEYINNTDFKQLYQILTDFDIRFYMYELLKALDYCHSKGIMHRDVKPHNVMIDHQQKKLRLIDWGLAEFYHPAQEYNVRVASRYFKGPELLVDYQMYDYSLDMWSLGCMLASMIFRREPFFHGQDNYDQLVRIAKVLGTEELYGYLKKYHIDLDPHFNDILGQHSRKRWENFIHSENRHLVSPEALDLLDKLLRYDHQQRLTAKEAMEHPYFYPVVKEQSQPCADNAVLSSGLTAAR
Assay [8] addresses Serine/threonine-protein kinase 26 (Homo sapiens) (UniProt Q9P289). In words: Inhibition of MST4 Lys1 labeling site in human A-375 cells at 0.05 uM by KiNativ Profiling analysis relative to control. It is filed as cell-based.
Assay [9] deals with T2, Kinase suppressor of Ras 1 (Homo sapiens) (UniProt Q8IVT5).
T2 sequence (whole entry): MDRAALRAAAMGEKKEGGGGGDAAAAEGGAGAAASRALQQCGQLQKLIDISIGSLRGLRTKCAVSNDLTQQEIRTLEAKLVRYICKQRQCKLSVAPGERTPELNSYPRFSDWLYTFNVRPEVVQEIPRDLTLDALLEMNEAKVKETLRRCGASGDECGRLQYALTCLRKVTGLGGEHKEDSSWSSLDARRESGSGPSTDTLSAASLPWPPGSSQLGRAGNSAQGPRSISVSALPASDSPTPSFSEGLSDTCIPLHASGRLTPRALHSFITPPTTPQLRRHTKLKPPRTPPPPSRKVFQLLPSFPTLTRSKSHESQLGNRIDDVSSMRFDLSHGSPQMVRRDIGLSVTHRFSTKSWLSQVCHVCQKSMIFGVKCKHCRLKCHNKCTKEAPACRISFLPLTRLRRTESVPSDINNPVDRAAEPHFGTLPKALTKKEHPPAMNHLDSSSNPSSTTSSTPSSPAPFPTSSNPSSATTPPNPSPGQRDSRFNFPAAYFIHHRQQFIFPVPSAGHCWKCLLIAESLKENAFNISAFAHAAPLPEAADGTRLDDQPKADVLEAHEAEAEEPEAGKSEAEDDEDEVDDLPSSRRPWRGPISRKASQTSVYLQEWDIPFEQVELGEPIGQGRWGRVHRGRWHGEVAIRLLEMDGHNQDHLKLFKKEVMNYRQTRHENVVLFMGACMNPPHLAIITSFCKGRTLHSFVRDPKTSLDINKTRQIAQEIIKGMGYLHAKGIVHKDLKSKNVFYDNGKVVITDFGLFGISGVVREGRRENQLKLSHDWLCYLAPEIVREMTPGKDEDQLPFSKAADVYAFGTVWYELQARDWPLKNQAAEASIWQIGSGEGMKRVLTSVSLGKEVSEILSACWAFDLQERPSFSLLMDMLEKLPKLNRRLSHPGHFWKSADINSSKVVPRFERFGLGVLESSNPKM
In words: Inhibition of KSR1 ACT labeling site harbouring SKNVFYDNGKVVITDFGLFGISGVVR in human A-375 cells at 0.05 uM by KiNativ Profiling analysis relative to control. It is filed as cell-based.

The source made the active and inactive calls. No cut-off for these calls is given here.

Sequence of Serine/threonine-protein kinase 26 (Homo sapiens) (Q9P289 2-416 limits assumed): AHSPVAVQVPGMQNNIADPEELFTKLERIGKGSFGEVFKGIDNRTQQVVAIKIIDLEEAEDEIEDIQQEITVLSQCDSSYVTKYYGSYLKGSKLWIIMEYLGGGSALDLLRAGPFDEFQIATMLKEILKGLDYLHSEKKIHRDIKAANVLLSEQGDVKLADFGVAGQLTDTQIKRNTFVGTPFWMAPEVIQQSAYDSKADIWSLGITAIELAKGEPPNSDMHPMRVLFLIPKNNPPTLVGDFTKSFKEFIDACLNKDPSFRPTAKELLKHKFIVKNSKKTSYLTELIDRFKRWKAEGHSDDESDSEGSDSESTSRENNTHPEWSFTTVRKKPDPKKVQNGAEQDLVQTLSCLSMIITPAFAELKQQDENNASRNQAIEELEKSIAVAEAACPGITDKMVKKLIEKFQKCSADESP
Sequence of Serine/threonine-protein kinase MARK1 (Homo sapiens) (Q9P0L2 whole entry, looked up): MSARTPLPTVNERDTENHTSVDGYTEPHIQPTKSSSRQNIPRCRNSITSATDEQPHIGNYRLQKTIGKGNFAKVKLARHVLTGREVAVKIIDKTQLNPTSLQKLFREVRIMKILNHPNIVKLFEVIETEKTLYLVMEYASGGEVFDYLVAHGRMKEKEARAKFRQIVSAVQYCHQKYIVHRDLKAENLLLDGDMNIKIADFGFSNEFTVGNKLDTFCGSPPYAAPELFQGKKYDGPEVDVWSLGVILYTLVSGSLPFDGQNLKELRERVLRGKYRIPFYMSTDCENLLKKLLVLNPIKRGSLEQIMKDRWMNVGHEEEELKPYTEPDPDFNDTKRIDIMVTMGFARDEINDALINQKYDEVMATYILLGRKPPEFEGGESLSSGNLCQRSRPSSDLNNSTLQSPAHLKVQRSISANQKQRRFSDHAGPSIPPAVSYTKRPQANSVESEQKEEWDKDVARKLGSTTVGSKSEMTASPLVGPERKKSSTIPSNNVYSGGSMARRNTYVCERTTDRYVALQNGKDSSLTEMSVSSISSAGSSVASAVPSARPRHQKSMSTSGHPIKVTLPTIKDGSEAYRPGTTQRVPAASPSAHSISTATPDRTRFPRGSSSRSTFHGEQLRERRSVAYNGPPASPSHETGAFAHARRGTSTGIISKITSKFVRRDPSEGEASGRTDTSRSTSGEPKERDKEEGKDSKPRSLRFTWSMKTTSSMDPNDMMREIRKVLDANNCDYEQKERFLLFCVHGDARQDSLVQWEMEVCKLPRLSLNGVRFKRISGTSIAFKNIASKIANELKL

As for `CNc1cc(Oc2cc(C(=O)Nc3cc(N4CCN(C)CC4)cc(C(F)(F)F)c3)ccc2C)ncn1`, the inhibition at 1 µM in [1] amounted to 19.8%.
Take `CCN1CCN(Cc2ccc(NC(=O)c3ccc(C)c(/C=C/c4cnc5[nH]ccc5c4OC)c3)cc2C(F)(F)F)CC1`: the inhibition is 17.5% in [2] and 71% in assay [4]. In assay [3], this molecule gave a residual activity of 77%.
For `CCN1CCN(Cc2ccc(NC(=O)c3ccc(C)c(Oc4ccnc5[nH]ccc45)c3)cc2C(F)(F)F)CC1`, the inhibition result in assay [5], in assay [6] and in assay [7] was “inactive” each time. The inhibition in assay [8] is -8.3%; in assay [9], -2.6%.

The values above are taken from ChEMBL document CHEMBL5696442, “Discovery of type II inhibitors of TGFβ-activated kinase 1 (TAK1) and mitogen-activated protein kinase kinase kinase kinase 2 (MAP4K2)” (J Med Chem, 2015).
